Assay: Human HepG2 cell viability assay in 384 well format
Format: toxicity, cell-based
Parameters: dose 125 nL, time 70.5 hour; concentration not given beside the values
Conditions: HepG2 cells, read-out: Inhibition

In order of falling cytotoxicity at 70.5 h:
1. Cc1nc(C2CCCN2CC(=O)NCCOc2ccc(F)cc2)no1 (centres undefined)  47.6%
2. CN(C)S(=O)(=O)N1CCC(c2nnc(C(F)(F)F)o2)CC1  30.8%
3. Cc1noc(CNC(=O)CN(C)c2nc3c(F)cccc3s2)n1  28.5%
4. Cn1c(C(F)(F)F)nn(CCNC(=O)Nc2ccccc2Cl)c1=O  25.1%
5. O=C(O)CC(CC(=O)N(Cc1ccsc1)C1CC1)c1cccs1 (centres undefined)  20.8%
6. Cc1nc(C)n(CC2CCCN2CCc2ccncc2)n1 (centres undefined)  18.1%
7. Cc1cnc(CN2CCOC(Cn3nc(C)cc3C)C2)cn1 (centres undefined)  13.7%
8. CN(C)C(CNC(=O)NCCOc1ccccc1)c1ccco1 (centres undefined)  13%
9. Cc1noc(CNC(=O)CN(C)c2nc3c(C)ccc(C)c3s2)n1  12.2%
10. N#Cc1ccsc1NC(=O)CN1CCOC(Cn2cccn2)C1 (centres undefined)  11%
11. COCC(C)NC(=O)c1nnn(-c2ccc(Br)cc2)n1 (centres undefined)  10.9%
12. O=C(C1=COCCO1)N1CC(Oc2nc3c(C(F)(F)F)cccc3s2)C1  10.3%
13. NC(=O)Cn1cc(NC(=O)N2CCN(c3ccc(F)cc3)CC2)cn1  8.67%
14. CCc1ccsc1C(=O)N1CCCN(Cc2nccn2CC)CC1  5.97%
15. O=C(NCC(F)(F)F)c1ccc(-n2cccn2)nn1  5.82%
16. CCC(C)NC(=O)c1nnn(-c2ccc(Br)cc2)n1 (centres undefined)  5.21%
17. Cc1cc(=O)n(CCNC(=O)c2ccccc2Cl)cn1  4.36%
18. O=C(Cn1ccc2ccccc21)Nc1cc(N2CCCC2)ncn1  3.21%
19. O=C(O)CC(CC(=O)NCCc1cccs1)c1cccs1 (centres undefined)  3.06%
20. CNc1cc(N2CCCC2CNCc2cnc(C)s2)ncn1 (centres undefined)  2.89%
21. CCOc1ccccc1NC(=O)Nc1cc(N2CCCC2)ncn1  1.9%
22. CC(OCC1CC1)C(=O)N1CCCN(Cc2cscn2)CC1 (centres undefined)  1.88%
23. NC(=O)Cc1csc(NC(=O)C2CSCCC(=O)N2)n1 (centres undefined)  1.67%
24. Cc1cc(C)n(CC2CCCN2CCc2ccccn2)n1 (centres undefined)  1.45%
25. CNc1cc(N2CCCC2CNCc2cscn2)ncn1 (centres undefined)  1.05%
26. Cc1ccc(NC2CCN(C(=O)c3cc(C)no3)CC2)nn1  0.395%
27. Cc1cccc(OC2CCN(C(=O)c3ccc4ncsc4c3)CC2)n1  0.229%
28. COC(=O)N1CCc2ccccc2C1C(=O)NCc1ccccn1 (centres undefined)  0.0153%
29. Cc1ccc(NC2CCN(C(=O)c3ccc(C)o3)CC2)nn1  -0.446%
30. N#Cc1ccc(OC2CCN(C(=O)Cc3cccs3)CC2)nc1  -0.57%
31. CCN(CC)CC(=O)N1CCN(c2nc(C)cc(OC)n2)CC1  -0.607%
32. Cc1ccc(C)n1C(C)C(=O)N1CCCN(Cc2cscn2)CC1 (centres undefined)  -0.61%
33. CCc1nnc2n1CCN(C(=O)c1cc(Cl)c[nH]1)C2  -1.1%
34. CCc1ncncc1C(=O)N1CCCC(n2nc(C)nc2C)C1 (centres undefined)  -1.23%
35. Cc1nc2cc(=O)[nH]n2c(C)c1CC(=O)NCc1ccoc1  -1.36%
36. Cc1n[nH]c(C2CN(C(=O)CCc3cscn3)CCO2)n1 (centres undefined)  -1.63%
37. CC(NS(C)(=O)=O)C(=O)N1CCCN(Cc2cscn2)CC1 (centres undefined)  -1.86%
38. Cn1cc(CCNCc2cc(Cl)c3c(c2)OCCO3)cn1  -2.02%
39. O=C(NCc1ccncc1)Nc1cc(C(F)(F)F)c[nH]c1=O  -2.18%
40. COc1ccccc1C(O)Cn1cc(C(=O)NCC2CC2)nn1 (centres undefined)  -2.27%
41. O=C(Nc1cnc(Oc2ccccc2)nc1)C1CC1  -2.39%
42. Cc1ccc(NC2CCN(C(=O)Cc3c(C)noc3C)CC2)nn1  -2.99%
43. CN1CCN(c2cc(CNC(=O)c3ccc(Cl)o3)ccn2)CC1  -3.02%
44. O=C(c1ccc(N2CCOCC2)nc1)N1CCCC(n2ccnc2)C1 (centres undefined)  -3.02%
45. CCc1nnsc1C(=O)N1CCCC(n2nc(C)nc2C)C1 (centres undefined)  -3.17%
46. CCc1cc(=O)n(CCNC(=O)Nc2ccc(OC(F)(F)F)cc2)cn1  -3.46%
47. Cc1cc(C)n(CC2CN(Cc3nnc(C)o3)CCO2)n1 (centres undefined)  -3.59%
48. Cc1ncn(CCNC(=O)Nc2ccc(F)c(Cl)c2)c(=O)c1C  -3.86%
49. COC(=O)N1CCc2ccccc2C1C(=O)NCc1ccncc1 (centres undefined)  -3.87%
50. Cc1cc(=O)n(CCNS(=O)(=O)c2ccc(F)c(Cl)c2)cn1  -4.51%
51. Cc1cnn(CC2CCCN2Cc2cc(C)on2)c1 (centres undefined)  -4.61%
52. Cc1ncc(C(=O)N2CCCC(n3nc(C)nc3C)C2)c(C(C)C)n1 (centres undefined)  -4.64%
53. Cc1cc(C)c(CNC(=O)NCC2COCCO2)c(=O)[nH]1 (centres undefined)  -4.78%
54. CN1CCCN(C(=O)c2nnn(-c3ccc(C(F)(F)F)cc3)n2)CC1  -4.86%
55. COc1ccc(OC)c(-c2cc(C(=O)NCC3(CO)CC3)n(C)n2)c1  -5.05%
56. CC(C)c1nnc(C2CCN(CC(=O)Nc3cccnc3)CC2)o1  -5.94%
57. O=C(NCC1CCCCC1)c1nnn(-c2ccc(Br)cc2)n1  -6.14%
58. Cc1nccn1-c1ccc(=O)n(CCNC(=O)c2c(F)cccc2Cl)n1  -6.16%
59. Cc1cccc(OC2CCN(C(=O)Cn3ccc4ccccc43)CC2)n1  -6.3%
60. Cc1nccn1-c1ccc(=O)n(CCNC(=O)c2ccccn2)n1  -6.46%
61. O=C(c1ccccc1N1CCOCC1)N1CCCC(n2ccnc2)C1 (centres undefined)  -6.72%
62. COC(=O)N1CCc2ccccc2C1C(=O)NCc1cccs1 (centres undefined)  -6.75%
63. COC(=O)N1CCc2ccccc2C1C(=O)NCc1nc(C)no1 (centres undefined)  -7.1%
64. COc1ccc(-n2nnc(C(N)=O)n2)cc1  -7.17%
65. O=C(c1ccco1)N(CC(F)(F)F)C1CCOCC1  -7.66%
66. CC(Cc1ccco1)NC(=O)Nc1ccc(N(C)C)nc1 (centres undefined)  -7.91%
67. Cc1cc(C)n(CC2CCCN2CCCS(C)(=O)=O)n1 (centres undefined)  -7.95%
68. Cn1c(C(F)(F)F)nn(CCNC(=O)Nc2ccccc2F)c1=O  -7.97%
69. Cc1cc(=O)n(CCNS(=O)(=O)c2cccc(C(F)(F)F)c2)cn1  -8.24%
70. Cc1nnc(C2CCN(C(=O)c3ccc4nccnc4c3)CC2)s1  -8.52%
71. O=C(Cn1cccc(S(=O)(=O)N2CCCC2)c1=O)c1ccccc1Cl  -8.77%
72. Cn1nc(C2CCN(CC(=O)NC3CC3)CC2)n(-c2ccccc2)c1=O  -8.96%
73. O=C(CCC(=O)N1CCC(Oc2ncccc2Br)CC1)c1ccccc1  -9.39%
74. Cc1cnn(CC2CN(CC(=O)Nc3cc(C)no3)CCO2)c1 (centres undefined)  -9.53%
75. Cc1ccc(S(=O)(=O)NCCc2ccoc2)s1  -9.94%
76. N#Cc1ccc(OC2CCN(C(=O)c3cncc(Br)c3)CC2)nc1  -9.99%
77. COC(=O)N1CCc2ccccc2C1C(=O)NCc1ccco1 (centres undefined)  -10.1%
78. NC(=O)Cn1cc(NC(=O)N2CCCCCC2)cn1  -11.1%
79. COc1ccc(NC(=O)NC(C)Cc2ccco2)cn1 (centres undefined)  -11.4%
80. CCn1ccnc1CN1CCCN(C(=O)c2scnc2C)CC1  -11.5%
81. Cc1nccn1-c1ccc(=O)n(CCNC(=O)c2cccs2)n1  -11.7%
82. O=C(NC1CCN(c2ccc(-c3ccccc3F)nn2)C1)c1cc[nH]n1 (centres undefined)  -12.8%
83. CCc1nccn1C1CCCN(C(=O)CCOCC(F)(F)F)C1 (centres undefined)  -14%
84. N#Cc1cccnc1OC1CCN(S(=O)(=O)c2ccc(F)c(Cl)c2)CC1  -14.2%

Source: ChEMBL document CHEMBL3507680, “University of Dundee, Gates Library screen for HepG2 cell viability”
